Test results published in ChEMBL document CHEMBL1128976, “Unsaturated thioacetic acids as novel mechanism-based inhibitors of peptidylglycine -hydroxylating monooxygenase” (Bioorg Med Chem Lett, 1996).

Target: T1, Peptidyl-glycine alpha-amidating monooxygenase (Homo sapiens) (UniProt P19021)
T1 sequence (whole entry): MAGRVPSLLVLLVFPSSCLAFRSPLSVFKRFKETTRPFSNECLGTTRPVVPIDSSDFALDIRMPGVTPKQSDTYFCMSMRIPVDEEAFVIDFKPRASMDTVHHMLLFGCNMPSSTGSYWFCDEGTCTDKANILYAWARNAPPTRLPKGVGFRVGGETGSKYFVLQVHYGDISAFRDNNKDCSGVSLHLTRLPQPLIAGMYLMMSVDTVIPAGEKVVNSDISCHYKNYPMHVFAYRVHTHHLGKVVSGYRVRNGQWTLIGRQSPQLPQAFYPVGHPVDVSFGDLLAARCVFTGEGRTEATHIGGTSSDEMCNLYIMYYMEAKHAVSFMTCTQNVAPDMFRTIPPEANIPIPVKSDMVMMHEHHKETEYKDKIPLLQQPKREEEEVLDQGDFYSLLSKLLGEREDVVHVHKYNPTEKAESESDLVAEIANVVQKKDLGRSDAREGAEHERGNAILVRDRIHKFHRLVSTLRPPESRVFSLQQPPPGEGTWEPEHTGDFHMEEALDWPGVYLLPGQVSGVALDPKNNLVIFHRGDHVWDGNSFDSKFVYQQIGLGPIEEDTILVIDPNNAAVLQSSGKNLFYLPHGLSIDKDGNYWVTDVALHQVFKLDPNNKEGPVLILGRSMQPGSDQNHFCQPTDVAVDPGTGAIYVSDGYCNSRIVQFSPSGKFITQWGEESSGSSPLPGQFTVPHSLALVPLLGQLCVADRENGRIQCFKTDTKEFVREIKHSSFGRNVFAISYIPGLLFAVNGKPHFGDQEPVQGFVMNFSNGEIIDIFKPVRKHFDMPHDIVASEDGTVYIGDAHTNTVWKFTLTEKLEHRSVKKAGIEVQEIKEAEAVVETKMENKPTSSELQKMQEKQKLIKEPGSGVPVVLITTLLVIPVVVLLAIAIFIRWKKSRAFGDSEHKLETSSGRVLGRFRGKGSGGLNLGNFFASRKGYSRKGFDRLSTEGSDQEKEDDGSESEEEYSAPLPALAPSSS
Assay: Kinetic constant for inhibition of peptidylglycine alpha hydroxylating monooxygenase (PHM) was determined
Details: Equus caballus

Compound	K inact [min⁻¹]
O=C(O)CSC#Cc1ccccc1	0.06
O=C(O)CS/C=C/c1ccccc1	0.2
